From ChEMBL document CHEMBL1201862, “PubChem BioAssay data set” (2004)
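In this assay, cells in 96-well plates receive the compound at five concentrations for 48 hours. Endpoints are linearly interpolated between the surrounding concentrations. GI50 = concentration required for 50% inhibition of growth.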 Activity calls are given as the source filed them. No stated cut-off is given here; in the data, active = GI50 up to about 1.1 µM and inactive = higher.

Legend:
Assay in all cases: NCI tumour cell line growth inhibition, 48 h
[1] = system: SW-620
[2] = system: UO-31
[3] = system: ACHN
[4] = system: A498
[5] = system: T47D
[6] = system: RPMI-8226
[7] = system: RXF 393
[8] = system: 786-0
[9] = system: HOP-92
[10] = system: TK-10
[11] = system: MDA-N
[12] = system: K562
[13] = system: SF-539
[14] = system: LOX IMVI
[15] = system: HCT-15
[16] = system: SNB-75
[17] = system: OVCAR-4
[18] = system: SK-MEL-5
[19] = system: U-251
[20] = system: SF-295
[21] = system: NCI-H226
[22] = system: A549
[23] = system: SK-MEL-2
[24] = system: BT-549
[25] = system: CCRF-CEM
[26] = system: IGROV-1
[27] = system: UACC-257
[28] = system: HCT-116
[29] = system: HOP-62
[30] = system: OVCAR-5
[31] = system: HL-60
[32] = system: NCI/ADR-RES
[33] = system: KM12
[34] = system: NCI-H460
[35] = system: DU-145
[36] = system: Malme-3M
[37] = system: MDA-MB-231
[38] = system: SF-268
[39] = system: Hs-578T
[40] = system: CAKI-1
[41] = system: EKVX
[42] = system: HCC 2998
[43] = system: NCI-H23
[44] = system: MOLT-4
[45] = system: SNB-19
[46] = system: HT-29
[47] = system: OVCAR-3
[48] = system: OVCAR-8
[49] = system: SR
[50] = system: SK-MEL-28
[51] = system: COLO 205
[52] = system: MDA-MB-435
[53] = system: SK-OV-3
[54] = system: UACC-62
[55] = system: PC-3
[56] = system: MCF7
[57] = system: SN12C
[58] = system: M14
[59] = system: NCI-H522
[60] = system: KM-20L2

C=C1[C@@H](O)C[C@@]23CC[C@@H]4[C@@]5(C)CC[C@@H](OC(C)=O)C(C)(C)[C@@H]5C[C@@H](OC5OC(COC(C)=O)C(O)C(O)C5O)[C@@]4(C)C2=CC[C@H]3[C@H]1C (some centres undefined)
GI50 [1]: 6.44 µM (inactive)
GI50 [2]: 14.1 µM (inactive)
GI50 [3]: 9.12 µM (inactive)
GI50 [4]: 9.73 µM (inactive)
GI50 [5]: 5.09 µM (inactive)
GI50 [6]: 2.84 µM (inactive)
GI50 [7]: 4.27 µM (inactive)
GI50 [8]: 6.14 µM (inactive)
GI50 [9]: 7.38 µM (inactive)
GI50 [10]: 8.41 µM (inactive)
GI50 [11]: 5.16 µM (inactive)
GI50 [12]: 2.99 µM (inactive)
GI50 [13]: 11.8 µM (inactive)
GI50 [14]: 3.01 µM (inactive)
GI50 [15]: 12.4 µM
GI50 [16]: 3.96 µM (inactive)
GI50 [17]: 5.57 µM (inactive)
GI50 [18]: 4 µM (inactive)
GI50 [19]: 3.03 µM (inactive)
GI50 [20]: 4.06 µM (inactive)
GI50 [21]: 4.43 µM (inactive)
GI50 [22]: 4.49 µM (inactive)
GI50 [23]: 2.34 µM (inactive)
GI50 [24]: 8.17 µM (inactive)
GI50 [25]: 2.97 µM (inactive)
GI50 [26]: 3.8 µM (inactive)
GI50 [27]: 11.6 µM (inactive)
GI50 [28]: 3.43 µM (inactive)
GI50 [29]: 11.7 µM (inactive)
GI50 [30]: 2.22 µM (inactive)
GI50 [31]: 2.27 µM (inactive)
GI50 [32]: 17.5 µM (inactive)
GI50 [33]: 2.1 µM (inactive)
GI50 [34]: 4.13 µM (inactive)
GI50 [35]: 10.5 µM (inactive)
GI50 [36]: 9.48 µM (inactive)
GI50 [37]: 5.47 µM (inactive)
GI50 [38]: 4.82 µM (inactive)
GI50 [39]: 5.66 µM (inactive)
GI50 [40]: 13.1 µM (inactive)
GI50 [41]: 10.2 µM (inactive)
GI50 [42]: 1.75 µM (inactive)
GI50 [43]: 10.7 µM (inactive)
GI50 [44]: 2.5 µM (inactive)
GI50 [45]: 4.93 µM (inactive)
GI50 [46]: 2.1 µM (inactive)
GI50 [47]: 3.72 µM (inactive)
GI50 [48]: 7.13 µM (inactive)
GI50 [49]: 2.33 µM (inactive)
GI50 [50]: 7.35 µM (inactive)
GI50 [51]: 2 µM (inactive)
GI50 [52]: 4.51 µM (inactive)
GI50 [53]: 13.1 µM (inactive)
GI50 [54]: 6.07 µM (inactive)
GI50 [55]: 3.66 µM (inactive)
GI50 [56]: 2.14 µM (inactive)
GI50 [57]: 7.98 µM (inactive)
GI50 [58]: 4.49 µM (inactive)
GI50 [59]: 5.35 µM (inactive)

CN(C)CCCN1CCC2(CCC(C(C)(C)C)CC2)CC1
GI50 [1]: 2.4 µM (inactive)
GI50 [2]: 1.56 µM (inactive)
GI50 [3]: 7.05 µM (inactive)
GI50 [4]: 2 µM (inactive)
GI50 [5]: 1.88 µM (inactive)
GI50 [6]: 1.25 µM (inactive)
GI50 [7]: 1.6 µM (inactive)
GI50 [8]: 1.54 µM (inactive)
GI50 [9]: 3.18 µM (inactive)
GI50 [10]: 1.66 µM (inactive)
GI50 [11]: 0.912 µM (active)
GI50 [12]: 0.266 µM (active)
GI50 [13]: 1.88 µM (inactive)
GI50 [14]: 1.42 µM (inactive)
GI50 [15]: 2.22 µM
GI50 [16]: 2.08 µM (inactive)
GI50 [17]: 6.31 µM (inactive)
GI50 [18]: 1.61 µM (inactive)
GI50 [19]: 1.76 µM (inactive)
GI50 [20]: 2.03 µM (inactive)
GI50 [21]: 6.82 µM (inactive)
GI50 [22]: 3.27 µM (inactive)
GI50 [23]: 1.75 µM (inactive)
GI50 [24]: 11.3 µM (inactive)
GI50 [25]: 1.58 µM (inactive)
GI50 [26]: 4.01 µM (inactive)
GI50 [27]: 1.41 µM (inactive)
GI50 [28]: 1.56 µM (inactive)
GI50 [29]: 2.15 µM (inactive)
GI50 [30]: 3.08 µM (inactive)
GI50 [31]: 0.603 µM (active)
GI50 [32]: 5.08 µM (inactive)
GI50 [33]: 2.38 µM (inactive)
GI50 [34]: 0.8 µM (active)
GI50 [35]: 6.71 µM (inactive)
GI50 [36]: 1.89 µM (inactive)
GI50 [37]: 1.91 µM (inactive)
GI50 [38]: 2.32 µM (inactive)
GI50 [39]: 1.89 µM (inactive)
GI50 [40]: 2.72 µM (inactive)
GI50 [41]: 5.33 µM (inactive)
GI50 [42]: 0.21 µM (active)
GI50 [43]: 7.48 µM (inactive)
GI50 [44]: 1.77 µM (inactive)
GI50 [45]: 3.27 µM (inactive)
GI50 [46]: 0.409 µM (active)
GI50 [47]: 3.1 µM (inactive)
GI50 [48]: 3.8 µM (inactive)
GI50 [49]: 1.42 µM (inactive)
GI50 [50]: 1.77 µM (inactive)
GI50 [51]: 1.51 µM (inactive)
GI50 [52]: 0.47 µM (active)
GI50 [53]: 9.29 µM (inactive)
GI50 [54]: 1.88 µM (inactive)
GI50 [55]: 2.52 µM (inactive)
GI50 [56]: 1.65 µM (inactive)
GI50 [57]: 7.35 µM (inactive)
GI50 [58]: 1.85 µM (inactive)
GI50 [59]: 2.49 µM (inactive)

COCCO [2-METHOXYETHANOL]
GI50 [1]: > 100 µM (inactive)
GI50 [2]: > 87.3 µM (inactive)
GI50 [4]: > 100 µM (inactive)
GI50 [6]: > 100 µM (inactive)
GI50 [7]: > 100 µM (inactive)
GI50 [9]: > 100 µM (inactive)
GI50 [12]: > 100 µM (inactive)
GI50 [13]: > 100 µM (inactive)
GI50 [14]: > 100 µM (inactive)
GI50 [15]: > 100 µM
GI50 [16]: > 64.6 µM (inactive)
GI50 [17]: > 100 µM (inactive)
GI50 [18]: > 100 µM (inactive)
GI50 [60]: > 100 µM (inactive)
GI50 [19]: > 100 µM (inactive)
GI50 [20]: > 100 µM (inactive)
GI50 [21]: > 100 µM (inactive)
GI50 [22]: > 100 µM (inactive)
GI50 [23]: > 100 µM (inactive)
GI50 [26]: > 100 µM (inactive)
GI50 [27]: > 100 µM (inactive)
GI50 [28]: > 100 µM (inactive)
GI50 [29]: > 78.2 µM (inactive)
GI50 [30]: > 100 µM (inactive)
GI50 [31]: > 100 µM (inactive)
GI50 [32]: > 100 µM (inactive)
GI50 [33]: > 100 µM (inactive)
GI50 [34]: > 100 µM (inactive)
GI50 [36]: > 100 µM (inactive)
GI50 [38]: > 100 µM (inactive)
GI50 [40]: > 100 µM (inactive)
GI50 [41]: > 100 µM (inactive)
GI50 [42]: > 100 µM (inactive)
GI50 [43]: > 100 µM (inactive)
GI50 [44]: > 100 µM (inactive)
GI50 [45]: > 100 µM (inactive)
GI50 [46]: > 100 µM (inactive)
GI50 [47]: > 100 µM (inactive)
GI50 [48]: > 100 µM (inactive)
GI50 [50]: > 100 µM (inactive)
GI50 [51]: > 100 µM (inactive)
GI50 [53]: > 100 µM (inactive)
GI50 [54]: > 100 µM (inactive)
GI50 [56]: > 100 µM (inactive)
GI50 [57]: > 100 µM (inactive)
GI50 [59]: > 100 µM (inactive)
